From patent publication US20100255994A1, “HERBICIDAL MIXTURE” (E.I. DU PONT DE NEMOURS AND COMPANY, priority 2007, published 2010)

System: Digitaria nuda
Assay: Test A: postemergence greenhouse weed control, visual rating
Assay type: in vivo
Settings: 7 DAT
Protocol: Plastic pots (10-cm square) were filled to the rim with a sandy loam soil having pH of 6.1, 1.4% organic matter and a cation exchange capacity (CEC) of 5.7 milliequivalents per 100 grams (meq/100 g). The soil was tamped firm to a uniform level of 2.5 cm below the rim of each pot. A measured amount of seeds of Digitaria nuda were scattered on the soil surface. Seeded pots were covered with approximately 50 mL of the same planting soil and tamped. The pots were then placed in a greenhouse and watered thoroughly 2-3 times daily as needed. A balanced fertilizer solution was injected into the watering system to provide 218 ppm of nitrogen. Artificial lighting was used to supplement natural light to produce a 14 h photoperiod. Greenhouse temperatures were targeted for 28.8° C. in the day and 19.8° C. at night.
When the D. nuda plants reached the 3-4-leaf growth stage (8-12 cm height), the pots were sorted into test units for herbicide application. Treatments were replicated three times. The herbicides were diluted in a measured amount of water and then mixed using a magnetic stir bar for 10 minutes before aliquots were taken to make individual treatment solutions. Diuron was in the form of the DuPont product KARMEX, which is a wettable granule formulation containing 80 weight % active ingredient. Hexazinone was in the form of the DuPont product VELPAR DF, which is a wettable granule formulation containing 75 weight % active ingredient. A mixture of hexazinone and diuron in 11:39 weight ratio was in the form of the DuPont product VELPAR-K (VELPAR-K4) 60 WG, which is a wettable granule formulation containing 13.2 weight % hexazinone and 46.8 weight % diuron active ingredients. A mixture of hexazinone and diuron in 1:8 weight ratio was in the form of the DuPont product VELPAR-K8 (marketed in Brazil as ADVANCE Herbicide), which is a wettable granule formulation containing 6.7 weight % hexazinone and 53.3 weight % diuron active ingredients. Topramezone was in the form of the AMVAC product IMPACT, which is a suspension concentrate formulation containing 29.7% active ingredient. These products were applied alone and in combinations. Application rates of diuron and hexazinone were […] and 210 g ai ha^−1, respectively. The application rates of the VELPAR-K4 mixture of hexazinone and diuron (132 g a.i. hexazinone+468 g a.i. diuron/kg of formulated product) and VELPAR-K8 mixture of hexazinone and diuron (67 g a.i. hexazinone+533 g a.i. diuron kg of formulated product) were 1200 and 1800 g total a.i. ha^−1, respectively. Application rates of topramezone were 6, 12, 18 and 24 g a.i./ha. (“a.i.” means active ingredient.) The pots were then sprayed through a T-Jet 8002E nozzle using a stationary belt sprayer calibrated to deliver 281 L/ha at 276 kPa. Treatments were replicated three times.
The plants were returned to the greenhouse, and then control was visually evaluated relative to the control plants at 7 days after treatment (DAT). A numerical percent rating system was used to describe the response observed from each treatment on a scale of 0 to 100%, in which 0% indicates no response and 100% indicates plant death or near death. The reported results are the mean averages of the three replicates.
Colby's Equation was used to determine the herbicidal effects expected from the mixtures. Colby's Equation (Colby, S. R. “Calculating Synergistic and Antagonistic Responses of Herbicide Combinations,” Weeds, 15(1), pp 20-22 (1967)) calculates the expected additive effect of herbicidal mixtures, and for two active ingredients, or a pair of active ingredients (e.g., diuron+hexazinone) combined with an additional active ingredient (e.g., topramezone), is of the form: […]

## CN(C)C(=O)Nc1ccc(Cl)c(Cl)c1 [Diuron, N′-(3,4-dichlorophenyl)-N,N-dimethylurea]
Diuron 1800 g a.i./ha
  % Control Observed: 20%

## CN(C)c1nc(=O)n(C2CCCCC2)c(=O)n1C [Hexazinone]
Hexazinone 210 g a.i./ha
  % Control Observed: 12%

## Cc1c(C(=O)c2cnn(C)c2O)ccc(S(C)(=O)=O)c1C1=NOCC1 [Topramezone]
Topramezone 6 g a.i./ha, 3-4-leaf stage, mean of 3 replicates
  % Control Observed: 27%
Topramezone 12 g a.i./ha
  % Control Observed: 28%
Topramezone 18 g a.i./ha
  % Control Observed: 33%
Topramezone 24 g a.i./ha
  % Control Observed: 40%
